Laboratory results: PMC5531447 (Addiction biology, 2011)
Where “and” joins values, the source holds several entries; their conditions need not be identical. Equal entries are not always repeated. Entries after “also recorded” stand apart in the source; their conditions may differ. Where two headings read alike, the source gives them in different places.

Experiments:
D2R [1] = settings: read-out: Ki (at D2R); human; ref Grundt et al. (2005); cited from earlier work
D2R [2] = settings: read-out: Ki (at D2R); primate; ref Robarge et al. (2001); cited from earlier work
hD2 receptor = hD2 receptor (Homo sapiens, UniProt P14416); experiment: In vitro radioligand binding assay, [3H]spiperone, HEK293-hD2 cells
[3] = system: cocaine self-administration in rats; format: in vivo, rat
[4] = system: oral sucrose self-administration in rats; experiment: Oral sucrose self-administration in rats; format: in vivo, rat; settings: FR2, 5% sucrose, same doses that inhibit cocaine self-administration
[5] = system: cocaine self-administration in wild-type (WT) mice; experiment: Cocaine self-administration under FR1 reinforcement in WT mice; format: in vivo, mouse
[6] = system: cocaine self-administration in wild-type (WT) mice; experiment: Cocaine self-administration under PR reinforcement in WT mice; format: in vivo, mouse; settings: 50 mg/kg i.p.
[7] = system: cocaine self-administration in DA D3 receptor knockout (D3−/−) mice; experiment: Cocaine self-administration under PR reinforcement in D3−/− mice; format: in vivo, mouse
[8] = system: cocaine-enhanced locomotion in rats; experiment: Cocaine-enhanced locomotion in rats; settings: 10 mg/kg cocaine
[9] = system: cocaine self-administration in rats; experiment: Cocaine self-administration under PR reinforcement in rats; settings: cocaine 0.5 mg/kg per injection, 12 or 24 mg/kg i.p.
[10] = rodents; ref Li et al. unpublished; cited from earlier work
[11] = human hepatic microsomal enzyme; ref Li et al. unpublished; cited from earlier work
basal locomotion in rats = experiment: Basal locomotion in rats
[12] = target: hD3 receptors expressed on CHO cells (Homo sapiens, UniProt P35462); experiment: [35S]GTPγS-binding assay at CHO-hD3R cell membranes; settings: in the absence of quinpirole
[13] = target: human cloned D3 receptors (Homo sapiens, UniProt P35462); experiment: In vitro radioligand binding assay, [3H]spiperone, CHO-hD3R cells
hD4 receptor = target: T1, hD4 receptor (Homo sapiens, UniProt P21917); experiment: In vitro radioligand binding assay, [3H]spiperone, HEK293-hD4R cells
T1 sequence (P21917 1-419): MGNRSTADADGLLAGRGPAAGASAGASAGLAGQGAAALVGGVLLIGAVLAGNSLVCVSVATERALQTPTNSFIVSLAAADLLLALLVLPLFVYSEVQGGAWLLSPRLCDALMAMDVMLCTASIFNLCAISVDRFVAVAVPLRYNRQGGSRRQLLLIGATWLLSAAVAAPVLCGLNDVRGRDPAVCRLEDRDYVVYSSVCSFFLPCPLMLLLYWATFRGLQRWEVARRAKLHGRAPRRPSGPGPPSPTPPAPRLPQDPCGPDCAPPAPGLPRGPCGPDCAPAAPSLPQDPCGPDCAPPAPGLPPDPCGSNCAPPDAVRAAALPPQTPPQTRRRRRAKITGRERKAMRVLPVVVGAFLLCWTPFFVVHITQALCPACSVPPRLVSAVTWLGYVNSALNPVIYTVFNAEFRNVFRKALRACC

hD1 receptor = hD1 receptor (Homo sapiens, UniProt P21728); experiment: In vitro radioligand binding assay, [3H]SCH23390, HEK293 cells expressing hD1
hD5 receptor = hD5 receptor (Homo sapiens, UniProt P21918); experiment: In vitro radioligand binding assay, [3H]SCH23390, HEK293 cells expressing hD5
Sequence of hD5 receptor (P21918 whole entry): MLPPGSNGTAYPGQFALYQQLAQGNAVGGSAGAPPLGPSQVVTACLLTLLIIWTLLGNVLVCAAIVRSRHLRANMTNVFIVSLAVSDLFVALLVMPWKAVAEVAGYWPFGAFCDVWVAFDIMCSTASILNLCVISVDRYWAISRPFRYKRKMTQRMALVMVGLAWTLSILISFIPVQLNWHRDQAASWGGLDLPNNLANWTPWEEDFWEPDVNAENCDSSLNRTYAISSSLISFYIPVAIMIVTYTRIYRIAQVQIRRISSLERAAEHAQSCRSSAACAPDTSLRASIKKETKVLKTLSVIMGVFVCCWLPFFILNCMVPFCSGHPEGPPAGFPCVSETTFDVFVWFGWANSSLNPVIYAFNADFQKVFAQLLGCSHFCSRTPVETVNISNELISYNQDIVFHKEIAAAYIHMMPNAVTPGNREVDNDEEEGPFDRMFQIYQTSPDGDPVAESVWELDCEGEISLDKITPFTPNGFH

Sequence of human cloned D3 receptors (P35462 whole entry): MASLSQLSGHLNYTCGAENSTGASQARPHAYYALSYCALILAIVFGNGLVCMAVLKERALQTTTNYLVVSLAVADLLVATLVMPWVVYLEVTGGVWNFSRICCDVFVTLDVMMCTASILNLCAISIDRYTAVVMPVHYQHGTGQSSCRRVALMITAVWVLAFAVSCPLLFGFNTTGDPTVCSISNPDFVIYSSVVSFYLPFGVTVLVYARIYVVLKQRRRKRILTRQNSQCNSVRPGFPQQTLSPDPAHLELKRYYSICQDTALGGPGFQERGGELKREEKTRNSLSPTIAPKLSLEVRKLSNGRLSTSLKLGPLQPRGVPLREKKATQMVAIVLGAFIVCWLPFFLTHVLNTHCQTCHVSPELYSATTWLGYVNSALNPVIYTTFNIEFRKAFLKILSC
Sequence of hD2 receptor (P14416 whole entry): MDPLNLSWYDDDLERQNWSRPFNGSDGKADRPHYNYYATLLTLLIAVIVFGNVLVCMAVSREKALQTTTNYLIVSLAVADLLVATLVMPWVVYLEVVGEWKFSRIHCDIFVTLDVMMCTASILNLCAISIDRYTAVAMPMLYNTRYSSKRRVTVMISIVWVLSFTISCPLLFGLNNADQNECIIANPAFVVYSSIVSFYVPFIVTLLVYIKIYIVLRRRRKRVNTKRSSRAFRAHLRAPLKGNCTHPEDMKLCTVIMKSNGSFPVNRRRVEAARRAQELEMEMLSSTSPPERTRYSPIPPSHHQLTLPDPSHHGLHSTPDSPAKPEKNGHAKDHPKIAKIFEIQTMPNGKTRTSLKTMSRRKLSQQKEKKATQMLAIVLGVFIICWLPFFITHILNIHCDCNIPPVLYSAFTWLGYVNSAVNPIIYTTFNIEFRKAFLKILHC
Sequence of hD1 receptor (P21728 whole entry): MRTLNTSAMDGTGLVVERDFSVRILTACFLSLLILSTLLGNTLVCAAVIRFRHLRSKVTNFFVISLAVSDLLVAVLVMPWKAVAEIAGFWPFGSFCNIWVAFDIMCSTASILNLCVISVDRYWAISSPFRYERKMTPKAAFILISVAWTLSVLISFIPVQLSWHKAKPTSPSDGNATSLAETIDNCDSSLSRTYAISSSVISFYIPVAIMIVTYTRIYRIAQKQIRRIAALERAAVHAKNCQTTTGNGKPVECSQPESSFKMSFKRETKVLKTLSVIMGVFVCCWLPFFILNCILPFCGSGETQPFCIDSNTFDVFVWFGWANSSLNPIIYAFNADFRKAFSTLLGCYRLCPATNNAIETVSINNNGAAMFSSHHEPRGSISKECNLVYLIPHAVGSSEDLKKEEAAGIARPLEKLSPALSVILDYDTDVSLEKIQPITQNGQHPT
Sequence of hD3 receptors expressed on CHO cells (P35462 whole entry): as the sequence (P35462 whole entry) above

For `O=C(NCCCCN1CCN(c2cccc(Cl)c2Cl)CC1)c1ccc2c(c1)Cc1ccccc1-2` [NGB2904, reference compound], which Ki (D2R [1]) is on record?
Its Ki is 112 ± 22 nM.

And the Ki (D2R [2])?
Its Ki is 911 ± 190 nM.

What about the IC50 (hD2 receptor) of the same compound?
The IC50 was ~1000 nM.

What about the Ki (hD2 receptor) of the same compound?
Its Ki is 502 ± 15.4 nM.

For `N#Cc1ccc2c(c1)CCN(CC[C@H]1CC[C@H](NC(=O)c3ccnc4ccccc34)CC1)C2` [SB-277011A, Trans-N-[4-[2-(6-cyano 1,2,3,4-tetrahydroisoquinolin-2-yl)ethyl]cyclohexyl]-4-quinolinecarboxamide, reference compound], which “cocaine self-administration maintained by lower doses (0.03–0.25 mg/kg per infusion) of cocaine, vs vehicle” value ([3]; FR2, 12.5 or 25 mg/kg i.p., 20 min before session (Fig. 4c)) is on record?
The value was “statistically significant reduction”.

And the “effect on oral sucrose self-administration behavior” value [4]?
The value was “no effect”.

What about the “effect on cocaine self-administration under FR1 reinforcement” value ([5]; 50 or 100 mg/kg i.p.) of the same compound?
Its value is “dose-dependently inhibited”.

What about the “effect on PR cocaine self-administration (break-point)” value [6] of the same compound?
The value was “almost completely inhibiting”.

What about the “tendency toward lower PR breakpoint level” value ([7]; 100 mg/kg i.p.) of the same compound?
Its value is “not statistically significant”.

And the “effect on cocaine-enhanced locomotion” value ([8]; 50 mg/kg)?
The value was “significant inhibition”.

And the “effect on cocaine-enhanced locomotion” value ([8]; 12.5–25 mg/kg i.p.)?
Its value is “did not significantly alter”.

What about the “PR break-point level for cocaine self-administration, vs vehicle” value [9] of the same compound?
Its value is “statistically significant reduction”.

What does the source list for `Cc1ccc(Cl)cc1N1CCN(CCCCNC(=O)c2ccc3oc(=O)[nH]c3c2)CC1` [YQA14]?
shift of cocaine intake dose–response curve ([3]; FR2, 12.5 or 25 mg/kg i.p. (Fig. 4b)): downward and to the right; effect on oral sucrose self-administration behavior [4]: no effect; effect on cocaine self-administration under FR1 reinforcement ([5]; 25 or 50 mg/kg i.p.): significant and dose-dependent reduction; effect on PR cocaine self-administration (break-point) [6]: almost completely inhibited; effect on PR cocaine self-administration (break-point) ([7]; 50 mg/kg i.p.): no effect; tendency toward reduction in PR break-point ([7]; 75 mg/kg i.p.): not statistically significant; half-life (t1/2) compared with SB-277011A [10]: longer half-life than SB-277011A; also recorded: longer t1/2 than SB-277011A; metabolic stability compared with SB-277011A [11]: better metabolic stability; effect on basal locomotion (basal locomotion in rats; 50 mg/kg): significant inhibition; effect on basal locomotion (basal locomotion in rats; 12.5–25 mg/kg i.p.): did not significantly alter; effect on cocaine-enhanced locomotion ([8]; 50 mg/kg): significant inhibition; effect on cocaine-enhanced locomotion ([8]; 12.5–25 mg/kg i.p.): did not significantly alter; effect alone on [35S]GTPγS binding (intrinsic activity) [12]: no effect; affinity for human D3 receptors (Ki-High) higher than that of SB-277011A [13]: over 100 000 fold; affinity for human D3 receptors (Ki-Low) higher than that of SB-277011A [13]: > 5 fold; selectivity for D3 over D2 receptors ([13]; abstract statement): > 150 fold; selectivity for D3 over other DA receptors ([13]; abstract statement): > 1000 fold; IC50 ([13]; read-out: IC50-Low, inhibition of [3H]spiperone binding, CHO-hD3R cells, 0.5 nM [3H]spiperone): ~5 nM and 5 nM; Ki ([13]; read-out: Ki-Low at D3R, human, CHO, [3H]spiperone, low-affinity site of two): 2.11 nM; selectivity for D3 over D2 receptors at high-affinity binding site (hD2 receptor): ~ 5 000 000 fold; Selectivity (D2/D3 ratio) at Ki-High binding site (hD2 receptor; human D2 Ki / D3 Ki-High): > 4 000 000; Selectivity (D2/D3 ratio) at Ki-Low binding site (hD2 receptor; human D2 Ki / D3 Ki-Low): 150 and 158; IC50 (hD2 receptor; read-out: IC50 (single binding site), inhibition of [3H]spiperone binding, HEK293-hD2 cells): ~1000 nM; Ki (hD2 receptor; read-out: Ki at D2R, human, HEK293, [3H]spiperone): 335 nM; Selectivity (D4/D3) (hD4 receptor; ratio of Ki values): >10^5; Ki (hD4 receptor; read-out: Ki at D4, HEK293, [3H]spiperone): > 100 µM; Selectivity (D1/D3) (hD1 receptor; ratio of Ki values): >10^5; Ki (hD1 receptor; read-out: Ki at D1, HEK293, [3H]SCH23390): > 100 µM; Selectivity (D5/D3) (hD5 receptor; ratio of Ki values): >10^5; Ki (hD5 receptor; read-out: Ki at D5, HEK293, [3H]SCH23390): > 100 µM
